Tests used:
Assay in all cases: 3' UTR reporter interaction score (median-centred robust z-score of log2 firefly/Renilla activity); higher = less repression of the 3' UTR reporter
Conditions in all cases: HEK293T; 48 h
[1] = test system: MYB
Outline: (§1)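 A firefly luc2P reporter carrying the gene's 3' UTR (100 ng), Renilla pRL-TK control (20 ng) and miRNA mimic (2.5 pmol) were co-transfected with DharmaFECT Duo into HEK293T cells plated at 10,000/well in 96-well plates. Luciferase activities were read 48 h post-transfection. The interaction score is the log firefly/Renilla ratio as a per-plate robust z-score from median and median absolute deviation, median-centred per miRNA, and more negative indicates interaction. Values are averages of at least two independent screens.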

[2] = test system: EZH2
Outline: as §1

[3] = test system: PHOX2B
Outline: as §1

[4] = test system: MYC
Outline: as §1

[5] = test system: PHF6
Outline: as §1

[6] = test system: BRCA2
Outline: as §1

[7] = test system: HRAS
Outline: as §1

[8] = test system: NOTCH1
Outline: as §1

[9] = test system: MYT1L
Outline: as §1

[10] = test system: MYCN
Outline: as §1

[11] = test system: TP53
Outline: as §1

[12] = test system: ZEB2
Outline: as §1

[13] = test system: FBXW7
Outline: as §1

[14] = test system: RB1
Outline: as §1

Row | Sequence | 3' UTR reporter interaction score [1] | 3' UTR reporter interaction score [2] | 3' UTR reporter interaction score [3] | 3' UTR reporter interaction score [4] | 3' UTR reporter interaction score [5] | 3' UTR reporter interaction score [6] | 3' UTR reporter interaction score [7] | 3' UTR reporter interaction score [8] | 3' UTR reporter interaction score [9] | 3' UTR reporter interaction score [10] | 3' UTR reporter interaction score [11] | 3' UTR reporter interaction score [12] | 3' UTR reporter interaction score [13] | 3' UTR reporter interaction score [14]
1 | UAAUACUGCCGGGUAAUGAUGG | -1.24 | 0.453 | -0.44 | 0.778 | 0.321 | -0.155 | -0.939 | -0.992 | 1.25 | -0.263 | 0.205 | -2.81 | -0.707 | 0.254
2 | UAAUACUGUCUGGUAAAACCGU | -2.29 | 0.716 | -0.137 | 0.8 | 0.422 | -0.165 | 0.264 | -1.39 | 0.747 | 0.575 | 0.0543 | -6.85 | -1.04 | 0.612
3 | UAAUCUCAGCUGGCAACUGUG | -0.952 | -0.0854 | 0.207 | 0.197 | 0.579 | 1.06 | 0.474 | -0.148 | -0.796 | 0.412 | -0.775 | 0.502 | -0.0147 | -0.947
4 | UAAUGCCCCUAAAAAUCCUUAU | -1.05 | 0.868 | 0.54 | 0.136 | 2.31 | 1.14 | -0.275 | -0.347 | 0.18 | -0.732 | -0.124 | -2.81 | 1.16 | -0.537
5 | UACAGUACUGUGAUAACUGAAG | 0.694 | -3.4 | 0.00398 | 0.128 | -0.261 | 0.0293 | 0.843 | -1.33 | 0.686 | -3.49 | -0.59 | -0.268 | -3.92 | 0.982
6 | UACAGUAGUCUGCACAUUGGUU | -0.118 | -0.827 | -0.571 | 0.385 | -0.669 | 0.551 | -0.926 | -0.605 | 3.26 | 0.292 | -1.16 | 1.83 | 0.408 | 2
7 | UACAGUAUAGAUGAUGUACUAG | 1.2 | 0.0925 | 1.45 | -0.27 | 0.845 | -0.483 | -0.991 | 0.141 | 0.926 | -0.388 | 0.564 | 0.857 | -1.17 | 0.00103
8 | UACCCAUUGCAUAUCGGAGUUG | -1.15 | -0.072 | -0.552 | 1.45 | -2.43 | 1.65 | 0.189 | 0.783 | -2.74 | -0.434 | 0.729 | -2.65 | 1.03 | 0.632

Reference: the supplement of paper PMC5844555
